Assay results published in patent US8993542B2, “Methods of treating viral infections” (priority 2008, dated 2015).

Columns and labels:
HIV = assay: microbe, parasite or virus in culture; type: cell-based
HIV-1IIIB = assay: Two-drug combination antiviral assay in CEM cells (CPE), MacSynergy II; type: cell-based; conditions: in combination with CMX157, CEM-SS cells, 95% confidence
[1] = Human immunodeficiency virus 1, PANEL 2, WT
[2] = Human immunodeficiency virus 1, PANEL 3, 6 TAMs, no 184
[3] = Human immunodeficiency virus 1, PANEL 6, 6 TAMs + 184
[4] = Human immunodeficiency virus 1, PANEL 7, 184V
[5] = Human immunodeficiency virus 1, PANEL 9, 69ins, no 184
[6] = Human immunodeficiency virus 1, PANEL 12, 69ins + 184
[7] = Human immunodeficiency virus 1, PANEL 14, 65R, no 184
[8] = Human immunodeficiency virus 1, PANEL 15, 65R + 184V
[9] = Human immunodeficiency virus 1, PANEL 17, L74V
[10] = Human immunodeficiency virus 1, PANEL 19, L74V + M184V
[11] = Human immunodeficiency virus 1, PANEL 26, 151M, no 184
[12] = Human immunodeficiency virus 1, PANEL 28, 151M + 184
[13] = Human immunodeficiency virus 1, PANEL 29, L74V − SDM
[14] = Human immunodeficiency virus 1, PANEL 30, M184V − SDM
[15] = Human immunodeficiency virus 1, PANEL 31, K65R − SDM
[16] = Human immunodeficiency virus 1, PANEL 33, T215Y
[17] = Human immunodeficiency virus 1, PANEL 34, T215Y + M184V
[18] = Human immunodeficiency virus 1, PANEL 35, M41L + T215Y
[19] = Human immunodeficiency virus 1, PANEL 37, M41L + T215Y + M184V
[20] = Human immunodeficiency virus 1, PANEL 38, M41L + L210W + T215Y
[21] = Human immunodeficiency virus 1, PANEL 39, M41L + L210W + T215Y
[22] = Human immunodeficiency virus 1, PANEL 40, M41L + L210W + T215Y + M184V
[23] = Human immunodeficiency virus 1, PANEL 41, M41L + L210W + T215Y + M184V
[24] = Human immunodeficiency virus 1, PANEL 42, D67N + K70R
[25] = Human immunodeficiency virus 1, PANEL 44, D67N + K70R + T215F + K219E + M184V
[26] = Human immunodeficiency virus 1, PANEL 45, L210W + T215Y
[27] = Human immunodeficiency virus 1, PANEL 46, D67N + K70E
[28] = Human immunodeficiency virus 1, PANEL 47, D67N + K70E + M184V
[29] = Human immunodeficiency virus 1, PANEL 48, K70E + M184V

Compound `Cc1cn([C@H]2C[C@H](N=[N+]=[N-])[C@@H](CO)O2)c(=O)[nH]c1=O` [ZDV, 3′-azido-2′,3′-dideoxythymdine] has an IC50 (HIV; [1]) of 17 nM, an IC50 (HIV; [2]) of 9560 nM and an IC50 (HIV; [3]) of 1610 nM. The IC50 (HIV; [4]) was 17 nM, the IC50 (HIV; [5]) was > 25000 nM and the IC50 (HIV; [6]) was 8710 nM. For the same compound, the IC50 (HIV; [7]) was 12 nM, the IC50 (HIV; [8]) was 11 nM and the IC50 (HIV; [9]) was 11 nM. It also gave an IC50 (HIV; [10]) of 6 nM, an IC50 (HIV; [11]) of 2540 nM and an IC50 (HIV; [12]) of 4180 nM. It also gave an IC50 (HIV; [13]) of 14 nM, an IC50 (HIV; [14]) of 9 nM and an IC50 (HIV; [15]) of 14 nM. It also gave an IC50 (HIV; [16]) of 1050 nM, an IC50 (HIV; [17]) of 71 nM and an IC50 (HIV; [18]) of 557 nM. The IC50 (HIV; [19]) was 177 nM, the IC50 (HIV; [20]) was 2720 nM and the IC50 (HIV; [21]) was 2680 nM. The IC50 (HIV; [22]) was 87 nM, the IC50 (HIV; [23]) was 107 nM and the IC50 (HIV; [24]) was 770 nM. It also gave an IC50 (HIV; [25]) of 192 nM, an IC50 (HIV; [26]) of 207 nM and an IC50 (HIV; [27]) of 6 nM. The IC50 (HIV; [28]) was 4 nM, the IC50 (HIV; [29]) was 4 nM and the “Antagonism Volume, Result 1” value (HIV-1IIIB) was −67.8 nM^2 %, μM^2 % or nMμM %. The “Antagonism Volume, Result 2” value (HIV-1IIIB) was 0 nM^2 %, μM^2 % or nMμM %, the “Antagonism Volume, Result 3” value (HIV-1IIIB) was −0.77 nM^2 %, μM^2 % or nMμM % and the “Mean Antagonism Volume (n = 3)” value (HIV-1IIIB) was −21.7 nM^2 %, μM^2 % or nMμM %. For the same compound, the “Mean Synergy Volume (n = 3)” value (HIV-1IIIB) was 11.5 nM^2 %, μM^2 % or nMμM %, the “Synergy Volume, Result 1” value (HIV-1IIIB) was 5.01 nM^2 %, μM^2 % or nMμM % and the “Synergy Volume, Result 2” value (HIV-1IIIB) was 32.7 nM^2 %, μM^2 % or nMμM %. The “Synergy Volume, Result 3” value (HIV-1IIIB) was 0 nM^2 %, μM^2 % or nMμM %.
In the case of `Cc1cn([C@H]2C=C[C@@H](CO)O2)c(=O)[nH]c1=O` [d4T, 2′,3′-didehydro-3′-deoxythymidine], the IC50 (HIV; Human immunodeficiency virus 1, PANEL 1, WT) is reported as 510 nM, the IC50 (HIV; [1]) is reported as 480 nM and the IC50 (HIV; [2]) is reported as 2170 nM. For the same compound, the IC50 (HIV; [3]) was 1350 nM, the IC50 (HIV; [4]) was 460 nM and the IC50 (HIV; [5]) was 6390 nM. For the same compound, the IC50 (HIV; [6]) was 6790 nM, the IC50 (HIV; [7]) was 770 nM and the IC50 (HIV; [8]) was 590 nM. It also gave an IC50 (HIV; [9]) of 600 nM, an IC50 (HIV; [10]) of 420 nM and an IC50 (HIV; [11]) of 5540 nM. The IC50 (HIV; [12]) was 4220 nM, the IC50 (HIV; [13]) was 630 nM and the IC50 (HIV; [14]) was 400 nM. The IC50 (HIV; [15]) was 830 nM, the IC50 (HIV; [16]) was 830 nM and the IC50 (HIV; [17]) was 650 nM. The IC50 (HIV; [18]) was 840 nM, the IC50 (HIV; [19]) was 860 nM and the IC50 (HIV; [20]) was 1220 nM. For the same compound, the IC50 (HIV; [21]) was 1090 nM, the IC50 (HIV; [22]) was 880 nM and the IC50 (HIV; [23]) was 1050 nM. It also gave an IC50 (HIV; [24]) of 780 nM, an IC50 (HIV; [25]) of 790 nM and an IC50 (HIV; [26]) of 940 nM. The IC50 (HIV; [27]) was 560 nM, the IC50 (HIV; [28]) was 420 nM and the IC50 (HIV; [29]) was 390 nM. The “IC50 Fold Change” value (HIV; PANEL 1, WT) was 0.86, the “IC50 Fold Change” value (HIV; PANEL 2, WT) was 0.81 and the “IC50 Fold Change” value (HIV; PANEL 3, 6 TAMs, no 184) was 3.66. For the same compound, the “IC50 Fold Change” value (HIV; PANEL 6, 6 TAMs + 184) was 2.28, the “IC50 Fold Change” value (HIV; PANEL 7, 184V) was 0.77 and the “IC50 Fold Change” value (HIV; PANEL 9, 69ins, no 184) was 11.00. For the same compound, the “IC50 Fold Change” value (HIV; PANEL 12, 69ins + 184) was 11.00, the “IC50 Fold Change” value (HIV; PANEL 14, 65R, no 184) was 1.30 and the “IC50 Fold Change” value (HIV; PANEL 15, 65R + 184V) was 0.99. For the same compound, the “IC50 Fold Change” value (HIV; PANEL 17, L74V) was 1.01, the “IC50 Fold Change” value (HIV; PANEL 19, L74V + M184V) was 0.71 and the “IC50 Fold Change” value (HIV; PANEL 26, 151M, no 184) was 9.33. For the same compound, the “IC50 Fold Change” value (HIV; PANEL 28, 151M + 184) was 7.10, the “IC50 Fold Change” value (HIV; PANEL 29, L74V − SDM) was 1.07 and the “IC50 Fold Change” value (HIV; PANEL 30, M184V − SDM) was 0.68. For the same compound, the “IC50 Fold Change” value (HIV; PANEL 31, K65R − SDM) was 1.40, the “IC50 Fold Change” value (HIV; PANEL 33, T215Y) was 1.40 and the “IC50 Fold Change” value (HIV; PANEL 34, T215Y + M184V) was 1.10. For the same compound, the “IC50 Fold Change” value (HIV; PANEL 35, M41L + T215Y) was 1.41, the “IC50 Fold Change” value (HIV; PANEL 37, M41L + T215Y + M184V) was 1.46 and the “IC50 Fold Change” value (HIV; PANEL 38, M41L + L210W + T215Y) was 2.06. For the same compound, the “IC50 Fold Change” value (HIV; PANEL 39, M41L + L210W + T215Y) was 1.84, the “IC50 Fold Change” value (HIV; PANEL 40, M41L + L210W + T215Y + M184V) was 1.48 and the “IC50 Fold Change” value (HIV; PANEL 41, M41L + L210W + T215Y + M184V) was 1.77. The “IC50 Fold Change” value (HIV; PANEL 42, D67N + K70R) was 1.31, the “IC50 Fold Change” value (HIV; PANEL 44, D67N + K70R + T215F + K219E + M184V) was 1.32 and the “IC50 Fold Change” value (HIV; PANEL 45, L210W + T215Y) was 1.58. The “IC50 Fold Change” value (HIV; PANEL 46, D67N + K70E) was 0.94, the “IC50 Fold Change” value (HIV; PANEL 47, D67N + K70E + M184V) was 0.70 and the “IC50 Fold Change” value (HIV; PANEL 48, K70E + M184V) was 0.65. For the same compound, the “Antagonism Volume, Result 1” value (HIV-1IIIB) was 0 nM^2 %, μM^2 % or nMμM %, the “Antagonism Volume, Result 2” value (HIV-1IIIB) was 0 nM^2 %, μM^2 % or nMμM % and the “Antagonism Volume, Result 3” value (HIV-1IIIB) was −1.83 nM^2 %, μM^2 % or nMμM %. For the same compound, the “Mean Antagonism Volume (n = 3)” value (HIV-1IIIB) was −0.61 nM^2 %, μM^2 % or nMμM %, the “Mean Synergy Volume (n = 3)” value (HIV-1IIIB) was 15.2 nM^2 %, μM^2 % or nMμM % and the “Synergy Volume, Result 1” value (HIV-1IIIB) was 4.47 nM^2 %, μM^2 % or nMμM %. For the same compound, the “Synergy Volume, Result 2” value (HIV-1IIIB) was 40.6 nM^2 %, μM^2 % or nMμM % and the “Synergy Volume, Result 3” value (HIV-1IIIB) was 0.39 nM^2 %, μM^2 % or nMμM %.
